In the CheMixHub drug solubility set:

Assay: xn = mol fraction of the nth substance listed, in the solute-free solvent

CC(C)C(=O)Nc1ccc([N+](=O)[O-])c(C(F)(F)F)c1 + C1CCOC1 + CC(C)O
solubility (g/100 g solution)
Conditions | 278.15 K | 283.15 K | 288.15 K | 293.15 K | 298.15 K | 303.15 K | 308.15 K | 313.15 K | 318.15 K | 323.15 K
x2 = 0.1 | 22.2 | 24.2 | 27 | 30.4 | 34.3 | 39 | 43.5 | 47.9 | 52 | 56.1
x2 = 0.2 | 31.7 | 33.5 | 35.9 | 38.8 | 42.4 | 46.1 | 49.8 | 53.3 | 56.9 | 61
x2 = 0.3 | 36.9 | 40.3 | 43.7 | 47 | 50.5 | 53.9 | 57.1 | 60.3 | 63.6 | 66.8
x2 = 0.4 | 40.4 | 43.2 | 46.4 | 50.1 | 53.3 | 56.9 | 60.1 | 63.1 | 65.9 | 68.8
x2 = 0.5 | 43.9 | 46.5 | 49.6 | 52.6 | 55.8 | 59.1 | 62.3 | 65.3 | 68.1 | 70.9
x2 = 0.6 | 47.4 | 49.7 | 52.6 | 55.8 | 58.7 | 61.9 | 64.7 | 67.6 | 70.2 | 73.3
x2 = 0.7 | 50.4 | 51.9 | 54.7 | 57.8 | 61.2 | 64.4 | 67.1 | 70 | 72.6 | 75.4
x2 = 0.8 | 52.5 | 54.5 | 57.4 | 60.7 | 63.7 | 66.4 | 69 | 71.8 | 74.2 | 77.1
x2 = 0.9 | 55.2 | 57.1 | 59.7 | 62.6 | 65.8 | 68.7 | 71.3 | 73.7 | 75.9 | 78.2

CC1=NNC(=O)N(N=Cc2cccnc2)C1 + C1COCCO1 + CC(C)O
solubility (g/100 g solution)
Conditions | 288.15 K | 293.15 K | 298.15 K | 303.15 K | 308.15 K | 313.15 K | 318.15 K
x2 = 0.1457 | 0.106 | 0.125 | 0.147 | 0.169 | 0.197 | 0.227 | 0.261
x2 = 0.3126 | 0.11 | 0.127 | 0.149 | 0.173 | 0.2 | 0.229 | 0.263
x2 = 0.5057 | 0.113 | 0.132 | 0.154 | 0.176 | 0.202 | 0.233 | 0.268
x2 = 0.7318 | 0.116 | 0.135 | 0.156 | 0.179 | 0.206 | 0.235 | 0.27

CC(C)C(=O)Nc1ccc([N+](=O)[O-])c(C(F)(F)F)c1 + C1COCCO1 + O
solubility (g/100 g solution)
Conditions | 283.15 K | 288.15 K | 293.15 K | 298.15 K | 303.15 K | 308.15 K | 313.15 K | 318.15 K | 323.15 K
x2 = 0.02222 | 0.00748 | 0.00971 | 0.0126 | 0.0163 | 0.0208 | 0.0262 | 0.033 | 0.0406 | 0.0498
x2 = 0.04865 | 0.0654 | 0.0845 | 0.108 | 0.135 | 0.17 | 0.212 | 0.26 | 0.316 | 0.382
x2 = 0.0806 | 0.391 | 0.472 | 0.574 | 0.691 | 0.832 | 0.993 | 1.17 | 1.38 | 1.63
x2 = 0.12 | 1.34 | 1.61 | 1.89 | 2.2 | 2.56 | 2.98 | 3.46 | 3.97 | 4.55
x2 = 0.1698 | 3.72 | 4.33 | 5.02 | 5.81 | 6.62 | 7.58 | 8.62 | 9.74 | 11
x2 = 0.2348 | 7.42 | 8.68 | 9.98 | 11.4 | 13 | 14.8 | 16.6 | 18.7 | 20.9
x2 = 0.3231 | 12.2 | 14.1 | 16.3 | 18.5 | 20.8 | 23.4 | 26.1 | 28.9 | 31.9
x2 = 0.45 | 18.1 | 20.6 | 23.5 | 26.6 | 29.8 | 33.3 | 36.7 | 40.4 | 44.1
x2 = 0.648 | 24.9 | 28 | 31.2 | 34.6 | 38.2 | 41.8 | 45.6 | 49.4 | 53.2

Nc1cccc2c1CN(C1CCC(=O)NC1=O)C2=O (centres undefined) + CC#N + CC(C)O
solubility (g/100 g solution)
Conditions | 273.15 K | 278.15 K | 283.15 K | 288.15 K | 293.15 K | 298.15 K | 303.15 K | 308.15 K | 313.15 K | 318.15 K
x2 = 0.2679 | 0.218 | 0.231 | 0.251 | 0.274 | 0.304 | 0.339 | 0.373 | 0.411 | 0.451 | 0.494
x2 = 0.4939 | 0.278 | 0.304 | 0.339 | 0.374 | 0.415 | 0.459 | 0.511 | 0.569 | 0.627 | 0.694
x2 = 0.6871 | 0.349 | 0.383 | 0.42 | 0.463 | 0.503 | 0.55 | 0.602 | 0.666 | 0.732 | 0.802
x2 = 0.8541 | 0.363 | 0.393 | 0.428 | 0.464 | 0.506 | 0.552 | 0.609 | 0.666 | 0.744 | 0.82

Nc1cccc2c1CN(C1CCC(=O)NC1=O)C2=O (centres undefined) + CC#N + CO
solubility (g/100 g solution)
Conditions | 273.15 K | 278.15 K | 283.15 K | 288.15 K | 293.15 K | 298.15 K | 303.15 K | 308.15 K | 313.15 K | 318.15 K
x2 = 0.1633 | 0.557 | 0.585 | 0.618 | 0.646 | 0.686 | 0.727 | 0.771 | 0.821 | 0.871 | 0.922
x2 = 0.3423 | 0.674 | 0.696 | 0.729 | 0.767 | 0.805 | 0.849 | 0.89 | 0.935 | 0.98 | 1.03
x2 = 0.5394 | 0.771 | 0.811 | 0.855 | 0.901 | 0.948 | 0.997 | 1.05 | 1.1 | 1.16 | 1.22
x2 = 0.7574 | 0.653 | 0.682 | 0.713 | 0.752 | 0.794 | 0.84 | 0.89 | 0.942 | 0.996 | 1.05

CC(C)C(=O)Nc1ccc([N+](=O)[O-])c(C(F)(F)F)c1 + CC#N + O
solubility (g/100 g solution)
Conditions | 278.15 K | 283.15 K | 288.15 K | 293.15 K | 298.15 K | 303.15 K | 308.15 K | 313.15 K | 318.15 K | 323.15 K
x2 = 0.04651 | 0.0051 | 0.007 | 0.00931 | 0.0126 | 0.0169 | 0.0223 | 0.0298 | 0.0389 | 0.0503 | 0.0645
x2 = 0.0989 | 0.0498 | 0.0667 | 0.0861 | 0.112 | 0.148 | 0.193 | 0.248 | 0.313 | 0.402 | 0.508
x2 = 0.1583 | 0.303 | 0.387 | 0.487 | 0.609 | 0.767 | 0.951 | 1.17 | 1.44 | 1.74 | 2.11
x2 = 0.2264 | 1.08 | 1.36 | 1.68 | 2.08 | 2.57 | 3.16 | 3.86 | 4.68 | 5.62 | 6.78
x2 = 0.3051 | 3.19 | 3.94 | 4.76 | 5.74 | 6.94 | 8.26 | 9.78 | 11.5 | 13.6 | 15.8
x2 = 0.397 | 6.71 | 8.14 | 9.68 | 11.6 | 13.8 | 16.2 | 19.1 | 22.2 | 25.3 | 28.7
x2 = 0.506 | 12.4 | 14.9 | 17.7 | 20.4 | 23.6 | 27.3 | 31.1 | 35.1 | 39.3 | 43.6
x2 = 0.6372 | 18.2 | 21.8 | 25.4 | 29.4 | 33.6 | 38 | 42.9 | 47.8 | 52.8 | 57.8
x2 = 0.798 | 24.1 | 28.7 | 33.3 | 38 | 43.2 | 48.7 | 54 | 59.6 | 64.5 | 69.8

CC(C)C(=O)Nc1ccc([N+](=O)[O-])c(C(F)(F)F)c1 + CC(C)=O + CC(C)O
solubility (g/100 g solution)
Conditions | 278.15 K | 283.15 K | 288.15 K | 293.15 K | 298.15 K | 303.15 K | 308.15 K | 313.15 K | 318.15 K | 323.15 K
x2 = 0.1 | 25.4 | 27.7 | 30.1 | 33.4 | 37.2 | 41 | 44.5 | 48.4 | 53.4 | 59
x2 = 0.2 | 31.8 | 34.1 | 37 | 40.1 | 44.1 | 48 | 52 | 55.4 | 58.7 | 61.9
x2 = 0.3 | 35.7 | 39 | 42 | 45.1 | 48.5 | 52.2 | 55.4 | 58.4 | 61.4 | 64.6
x2 = 0.4 | 38.8 | 42.4 | 45.5 | 48.8 | 52.2 | 55.7 | 59.1 | 62.2 | 65 | 68
x2 = 0.5 | 42.2 | 45.7 | 48.9 | 52.2 | 55.5 | 58.8 | 61.7 | 65 | 68.2 | 71.2
x2 = 0.6 | 44.1 | 47.5 | 51.6 | 54.6 | 57.9 | 61.1 | 63.8 | 67.1 | 70.5 | 73.9
x2 = 0.7 | 47.6 | 50.5 | 54.4 | 57.4 | 60.6 | 64 | 66.9 | 70.1 | 73.3 | 76.3
x2 = 0.8 | 49.3 | 52.8 | 56.5 | 59.7 | 62.9 | 66.1 | 68.9 | 72 | 75.2 | 78.1
x2 = 0.9 | 51 | 54.5 | 58 | 61.3 | 64.7 | 67.9 | 71.1 | 74 | 76.8 | 79.6

CC(C)C(=O)Nc1ccc([N+](=O)[O-])c(C(F)(F)F)c1 + CC(C)O + O
solubility (g/100 g solution)
Conditions | 278.15 K | 283.15 K | 288.15 K | 293.15 K | 298.15 K | 303.15 K | 308.15 K | 313.15 K | 318.15 K | 323.15 K
x2 = 0.03225 | 0.00411 | 0.00535 | 0.00694 | 0.00908 | 0.0116 | 0.0149 | 0.0187 | 0.0236 | 0.0297 | 0.0366
x2 = 0.06974 | 0.0295 | 0.0376 | 0.0488 | 0.0614 | 0.0768 | 0.0971 | 0.121 | 0.15 | 0.185 | 0.226
x2 = 0.1139 | 0.145 | 0.182 | 0.228 | 0.279 | 0.342 | 0.415 | 0.505 | 0.598 | 0.707 | 0.853
x2 = 0.1666 | 0.533 | 0.638 | 0.775 | 0.929 | 1.12 | 1.32 | 1.54 | 1.82 | 2.11 | 2.46
x2 = 0.2307 | 1.53 | 1.83 | 2.16 | 2.51 | 2.97 | 3.45 | 3.99 | 4.54 | 5.22 | 5.9
x2 = 0.3103 | 3.62 | 4.25 | 5 | 5.84 | 6.78 | 7.81 | 9.03 | 10.4 | 11.7 | 13.3
x2 = 0.4117 | 6.94 | 8.23 | 9.52 | 11.1 | 12.8 | 14.6 | 16.6 | 18.9 | 21.3 | 23.8
x2 = 0.5454 | 11.6 | 13.6 | 15.6 | 17.6 | 20.1 | 22.3 | 25 | 28.1 | 30.8 | 33.6
x2 = 0.7297 | 16.9 | 19.1 | 21.6 | 24.2 | 27.3 | 30.4 | 33 | 36.1 | 39.4 | 42.8
